Experimental data taken from patent publication US4639433A, “Glycopeptide derivatives” (Eli Lilly and Company, priority 1985, dated 1987).
In brackets after ≈: the same amount, converted by molar mass.

Assays:
Settings in all cases: agar dilution
Escherichia coli TEM = tested on: Escherichia coli TEM
[1] = tested on: Staphylococcus aureus S13E
[2] = tested on: Streptococcus faecium ATCC 9790
[3] = tested on: Staphylococcus epidermidis EPI1
[4] = tested on: Klebsiella pneumoniae X26
[5] = tested on: Streptococcus pyogenes C203
[6] = tested on: Klebsiella pneumoniae X68
[7] = tested on: Haemophilus influenzae C.L.
Escherichia coli EC14 = tested on: Escherichia coli EC14
[8] = tested on: Staphylococcus epidermidis 222
[9] = tested on: Streptococcus sp. group D 2041
Escherichia coli N10 = tested on: Escherichia coli N10
[10] = tested on: Klebsiella pneumoniae KAE
[11] = tested on: Staphylococcus aureus X400
[12] = tested on: Staphylococcus aureus NRRL B313
[13] = tested on: Staphylococcus aureus V41
[14] = tested on: Streptococcus pneumoniae Park 1
[15] = tested on: Haemophilus influenzae 76

CCCCCCCCCC(=O)NC1(C)CC(OC2C(Oc3c4cc5cc3Oc3ccc(cc3Cl)C(O)C(NC(=O)C(CC(C)C)N(C)C(=O)CCCCCCCCC)C(=O)NC(CC(N)=O)C(=O)NC5C(=O)NC3C(=O)NC(C(=O)NC(C(=O)O)c5cc(O)cc(O)c5-c5cc3ccc5O)C(O)c3ccc(c(Cl)c3)O4)OC(CO)C(O)C2O)OC(C)C1O (stereo not drawn) [Compound 8, N^van,N^leu-di(1-oxo-n-decyl)vancomycin]
MIC (Escherichia coli TEM): -- (not active at 128 mcg/ml) | MIC [1]: 8 µg/mL (≈ 4.55 µM) | MIC [2]: 8 µg/mL (≈ 4.55 µM) | MIC [3]: 32 µg/mL (≈ 18.2 µM) | MIC [4]: -- (not active at 128 mcg/ml) | MIC [5]: 4 µg/mL (≈ 2.28 µM) | MIC [6]: -- (not active at 128 mcg/ml) | MIC [7]: -- (not active at 128 mcg/ml) | MIC (Escherichia coli EC14): -- (not active at 128 mcg/ml) | MIC [8]: 8 µg/mL (≈ 4.55 µM) | MIC [9]: 8 µg/mL (≈ 4.55 µM) | MIC (Escherichia coli N10): -- (not active at 128 mcg/ml) | MIC [10]: -- (not active at 128 mcg/ml) | MIC [11]: 4 µg/mL (≈ 2.28 µM) | MIC [12]: 2 µg/mL (≈ 1.14 µM) | MIC [13]: 4 µg/mL (≈ 2.28 µM) | MIC [14]: 16 µg/mL (≈ 9.1 µM) | MIC [15]: -- (not active at 128 mcg/ml)

C=CCCCCCCCCC(=O)NC1(C)CC(OC2C(Oc3c4cc5cc3Oc3ccc(cc3Cl)C(O)C(NC(=O)C(CC(C)C)N(C)C(=O)CCCCCCCCC=C)C(=O)NC(CC(N)=O)C(=O)NC5C(=O)NC3C(=O)NC(C(=O)NC(C(=O)O)c5cc(O)cc(O)c5-c5cc3ccc5O)C(O)c3ccc(c(Cl)c3)O4)OC(CO)C(O)C2O)OC(C)C1O (stereo not drawn) [Compound 11, N^van,N^leu --(1-oxo-10-n-decenyl)vancomycin]
MIC (Escherichia coli TEM): 64 µg/mL (≈ 35.9 µM) | MIC [1]: 8 µg/mL (≈ 4.49 µM) | MIC [2]: 8 µg/mL (≈ 4.49 µM) | MIC [3]: 64 µg/mL (≈ 35.9 µM) | MIC [4]: 128 µg/mL (≈ 71.8 µM) | MIC [5]: 2 µg/mL (≈ 1.12 µM) | MIC [6]: 128 µg/mL (≈ 71.8 µM) | MIC [7]: 32 µg/mL (≈ 18 µM) | MIC (Escherichia coli EC14): 128 µg/mL (≈ 71.8 µM) | MIC [8]: 16 µg/mL (≈ 8.98 µM) | MIC [9]: 16 µg/mL (≈ 8.98 µM) | MIC (Escherichia coli N10): 128 µg/mL (≈ 71.8 µM) | MIC [10]: 128 µg/mL (≈ 71.8 µM) | MIC [11]: 16 µg/mL (≈ 8.98 µM) | MIC [12]: 8 µg/mL (≈ 4.49 µM) | MIC [13]: 8 µg/mL (≈ 4.49 µM) | MIC [14]: 4 µg/mL (≈ 2.24 µM) | MIC [15]: 32 µg/mL (≈ 18 µM)

CCCCCCCC(=O)NC1(C)CC(OC2C(Oc3c4cc5cc3Oc3ccc(cc3Cl)C(O)C(NC(=O)C(CC(C)C)N(C)C(=O)CCCCCCC)C(=O)NC(CC(N)=O)C(=O)NC5C(=O)NC3C(=O)NC(C(=O)NC(C(=O)O)c5cc(O)cc(O)c5-c5cc3ccc5O)C(O)c3ccc(c(Cl)c3)O4)OC(CO)C(O)C2O)OC(C)C1O (stereo not drawn) [Compound 5, N^van,N^leu --di(1-oxo-n-octyl)vancomycin]
MIC (Escherichia coli TEM): -- (not active at 128 mcg/ml) | MIC [1]: 32 µg/mL (≈ 18.8 µM) | MIC [2]: 32 µg/mL (≈ 18.8 µM) | MIC [3]: -- (not active at 128 mcg/ml) | MIC [4]: -- (not active at 128 mcg/ml) | MIC [5]: 32 µg/mL (≈ 18.8 µM) | MIC [6]: -- (not active at 128 mcg/ml) | MIC [7]: -- (not active at 128 mcg/ml) | MIC (Escherichia coli EC14): -- (not active at 128 mcg/ml) | MIC [8]: 64 µg/mL (≈ 37.6 µM) | MIC [9]: 32 µg/mL (≈ 18.8 µM) | MIC (Escherichia coli N10): -- (not active at 128 mcg/ml) | MIC [10]: -- (not active at 128 mcg/ml) | MIC [11]: 32 µg/mL (≈ 18.8 µM) | MIC [12]: 32 µg/mL (≈ 18.8 µM) | MIC [13]: 32 µg/mL (≈ 18.8 µM) | MIC [14]: 32 µg/mL (≈ 18.8 µM) | MIC [15]: -- (not active at 128 mcg/ml)

CCCCCCCCCCCC(=O)N(C)C(CC(C)C)C(=O)NC1C(=O)NC(CC(N)=O)C(=O)NC2C(=O)NC3C(=O)NC(C(=O)NC(C(=O)O)c4cc(O)cc(O)c4-c4cc3ccc4O)C(O)c3ccc(c(Cl)c3)Oc3cc2cc(c3OC2OC(CO)C(O)C(O)C2OC2CC(C)(N)C(O)C(C)O2)Oc2ccc(cc2Cl)C1O (stereo not drawn) [Compound 13, N^leu --(1-oxo-n-dodecyl)vancomycin]
MIC (Escherichia coli TEM): -- (not active at 128 mcg/ml) | MIC [1]: 8 µg/mL (≈ 4.9 µM) | MIC [2]: 8 µg/mL (≈ 4.9 µM) | MIC [3]: 32 µg/mL (≈ 19.6 µM) | MIC [4]: -- (not active at 128 mcg/ml) | MIC [5]: 8 µg/mL (≈ 4.9 µM) | MIC [6]: -- (not active at 128 mcg/ml) | MIC [7]: 128 µg/mL (≈ 78.5 µM) | MIC (Escherichia coli EC14): -- (not active at 128 mcg/ml) | MIC [8]: 8 µg/mL (≈ 4.9 µM) | MIC [9]: 8 µg/mL (≈ 4.9 µM) | MIC (Escherichia coli N10): -- (not active at 128 mcg/ml) | MIC [10]: -- (not active at 128 mcg/ml) | MIC [11]: 8 µg/mL (≈ 4.9 µM) | MIC [12]: 8 µg/mL (≈ 4.9 µM) | MIC [13]: 8 µg/mL (≈ 4.9 µM) | MIC [14]: 8 µg/mL (≈ 4.9 µM) | MIC [15]: 32 µg/mL (≈ 19.6 µM)

CCC(CC)C(=O)NC1(C)CC(OC2C(Oc3c4cc5cc3Oc3ccc(cc3Cl)C(O)C3NC(=O)C(NC(=O)C5NC(=O)C(CC(N)=O)NC(=O)C(NC(=O)C(CC(C)C)NC)C(O)c5ccc(c(Cl)c5)O4)c4ccc(O)c(c4)-c4c(O)cc(O)cc4C(C(=O)O)NC3=O)OC(CO)C(O)C2O)OC(C)C1O (stereo not drawn) [Compound 22, N^van --(2-ethyl-1-oxo-n-butyl)vancomycin]
MIC (Escherichia coli TEM): -- (not active at 128 mcg/ml) | MIC [1]: 2 µg/mL (≈ 1.29 µM) | MIC [2]: 2 µg/mL (≈ 1.29 µM) | MIC [3]: 8 µg/mL (≈ 5.17 µM) | MIC [4]: -- (not active at 128 mcg/ml) | MIC [5]: 2 µg/mL (≈ 1.29 µM) | MIC [6]: -- (not active at 128 mcg/ml) | MIC [7]: 128 µg/mL (≈ 82.7 µM) | MIC (Escherichia coli EC14): -- (not active at 128 mcg/ml) | MIC [8]: 2 µg/mL (≈ 1.29 µM) | MIC [9]: 8 µg/mL (≈ 5.17 µM) | MIC (Escherichia coli N10): -- (not active at 128 mcg/ml) | MIC [10]: -- (not active at 128 mcg/ml) | MIC [11]: 2 µg/mL (≈ 1.29 µM) | MIC [12]: 2 µg/mL (≈ 1.29 µM) | MIC [13]: 2 µg/mL (≈ 1.29 µM) | MIC [14]: 2 µg/mL (≈ 1.29 µM) | MIC [15]: 128 µg/mL (≈ 82.7 µM)

CNC(CC(C)C)C(=O)NC1C(=O)NC(CC(N)=O)C(=O)NC2C(=O)NC3C(=O)NC(C(=O)NC(C(=O)O)c4cc(O)cc(O)c4-c4cc3ccc4O)C(O)c3ccc(c(Cl)c3)Oc3cc2cc(c3OC2OC(CO)C(O)C(O)C2OC2CC(C)(NC(=O)CC(C)C)C(O)C(C)O2)Oc2ccc(cc2Cl)C1O (stereo not drawn) [Compound 34, N^van --(1-oxo-isopentyl)vancomycin]
MIC (Escherichia coli TEM): -- (not active at 128 mcg/ml) | MIC [1]: 2 µg/mL (≈ 1.3 µM) | MIC [2]: 2 µg/mL (≈ 1.3 µM) | MIC [3]: 8 µg/mL (≈ 5.22 µM) | MIC [4]: -- (not active at 128 mcg/ml) | MIC [5]: 1 µg/mL (≈ 0.652 µM) | MIC [6]: -- (not active at 128 mcg/ml) | MIC [7]: -- (not active at 128 mcg/ml) | MIC (Escherichia coli EC14): -- (not active at 128 mcg/ml) | MIC [8]: 4 µg/mL (≈ 2.61 µM) | MIC [9]: 8 µg/mL (≈ 5.22 µM) | MIC (Escherichia coli N10): -- (not active at 128 mcg/ml) | MIC [10]: -- (not active at 128 mcg/ml) | MIC [11]: 2 µg/mL (≈ 1.3 µM) | MIC [12]: 2 µg/mL (≈ 1.3 µM) | MIC [13]: 2 µg/mL (≈ 1.3 µM) | MIC [14]: 1 µg/mL (≈ 0.652 µM) | MIC [15]: -- (not active at 128 mcg/ml)

CNC(CC(C)C)C(=O)NC1C(=O)NC(CC(N)=O)C(=O)NC2C(=O)NC3C(=O)NC(C(=O)NC(C(=O)O)c4cc(O)cc(O)c4-c4cc3ccc4O)C(O)c3ccc(c(Cl)c3)Oc3cc2cc(c3OC2OC(CO)C(O)C(O)C2OC2CC(C)(NC(=O)CCC(C)=O)C(O)C(C)O2)Oc2ccc(cc2Cl)C1O (stereo not drawn) [Compound 36, N^van --(3-acetyl-1-oxo-n-propyl)vancomycin]
MIC (Escherichia coli TEM): -- (not active at 128 mcg/ml) | MIC [1]: 4 µg/mL (≈ 2.59 µM) | MIC [2]: 4 µg/mL (≈ 2.59 µM) | MIC [3]: 16 µg/mL (≈ 10.3 µM) | MIC [4]: -- (not active at 128 mcg/ml) | MIC [5]: 1 µg/mL (≈ 0.646 µM) | MIC [6]: -- (not active at 128 mcg/ml) | MIC [7]: -- (not active at 128 mcg/ml) | MIC (Escherichia coli EC14): -- (not active at 128 mcg/ml) | MIC [8]: 4 µg/mL (≈ 2.59 µM) | MIC [9]: 8 µg/mL (≈ 5.17 µM) | MIC (Escherichia coli N10): -- (not active at 128 mcg/ml) | MIC [10]: -- (not active at 128 mcg/ml) | MIC [11]: 2 µg/mL (≈ 1.29 µM) | MIC [12]: 2 µg/mL (≈ 1.29 µM) | MIC [13]: 2 µg/mL (≈ 1.29 µM) | MIC [14]: 1 µg/mL (≈ 0.646 µM) | MIC [15]: -- (not active at 128 mcg/ml)

CCCCCCCC(=O)N(C)C(CC(C)C)C(=O)NC1C(=O)NC(CC(N)=O)C(=O)NC2C(=O)NC3C(=O)NC(C(=O)NC(C(=O)O)c4cc(O)cc(O)c4-c4cc3ccc4O)C(O)c3ccc(c(Cl)c3)Oc3cc2cc(c3OC2OC(CO)C(O)C(O)C2OC2CC(C)(N)C(O)C(C)O2)Oc2ccc(cc2Cl)C1O (stereo not drawn) [Compound 4, N^leu --(1-oxo-n-octyl)vancomycin]
MIC (Escherichia coli TEM): -- (not active at 128 mcg/ml) | MIC [1]: 8 µg/mL (≈ 5.08 µM) | MIC [2]: 8 µg/mL (≈ 5.08 µM) | MIC [3]: 32 µg/mL (≈ 20.3 µM) | MIC [4]: -- (not active at 128 mcg/ml) | MIC [5]: 4 µg/mL (≈ 2.54 µM) | MIC [6]: -- (not active at 128 mcg/ml) | MIC [7]: -- (not active at 128 mcg/ml) | MIC (Escherichia coli EC14): -- (not active at 128 mcg/ml) | MIC [8]: 16 µg/mL (≈ 10.2 µM) | MIC [9]: 16 µg/mL (≈ 10.2 µM) | MIC (Escherichia coli N10): -- (not active at 128 mcg/ml) | MIC [10]: -- (not active at 128 mcg/ml) | MIC [11]: 8 µg/mL (≈ 5.08 µM) | MIC [12]: 8 µg/mL (≈ 5.08 µM) | MIC [13]: 8 µg/mL (≈ 5.08 µM) | MIC [14]: 2 µg/mL (≈ 1.27 µM) | MIC [15]: -- (not active at 128 mcg/ml)
